The values below come from ChEMBL document CHEMBL4507279, “Data for DCP probe BI-9627” (2021).

Activity calls are given as the source filed them. The rule behind the calls is not given here.

Series [1] addresses Mitogen-activated protein kinase 11 (Homo sapiens) (UniProt Q15759). To be noted: Compound concentration 1000.0 nM.
The target in series [2] is Beta-1 adrenergic receptor (Homo sapiens) (UniProt P08588). Put plainly: BETA1/HU Eurofins-Panlabs selectivity data (BI). To be noted: Compound concentration 10.0 uM.
The target in series [3] is Voltage-dependent L-type calcium channel subunit alpha-1C (DHP site) (Rattus norvegicus, UniProt P22002). Put plainly: CA+/DHPSI/RA Eurofins-Panlabs selectivity data (BI). To be noted: compound concentration 10 uM, read-out: % Ctrl.
In series [4] the target is Voltage-dependent L-type calcium channel subunit alpha-1C (diltiazem site) (Rattus norvegicus, UniProt P22002). Put plainly: CA+/DILSI/RA Eurofins-Panlabs selectivity data (BI). As to conditions: compound concentration 10 uM, read-out: % Ctrl.
Series [5] concerns the target Cysteinyl leukotriene receptor 1 (Homo sapiens) (UniProt Q9Y271). Put plainly: CYSLT1_HS Eurofins-Panlabs selectivity data (BI). To be noted: Compound concentration 10.0 uM.
The target in series [6] is D(2) dopamine receptor (Homo sapiens) (UniProt P14416). Put plainly: D2S/HU Eurofins-Panlabs selectivity data (BI). To be noted: Compound concentration 10.0 uM.
The target of series [7] is Delta-type opioid receptor (Homo sapiens) (UniProt P41143). Briefly: DELTA/HU Eurofins-Panlabs selectivity data (BI). To be noted: Compound concentration 10.0 uM.
The target of series [8] is Gamma-aminobutyric acid receptor subunit alpha-1 (Rattus norvegicus) (UniProt P62813). Briefly: GABAA MUSCIMOL CENT Eurofins-Panlabs selectivity data (BI). As to conditions: Compound concentration 10.0 uM.
The target of series [9] is Glucocorticoid receptor (Homo sapiens) (UniProt P04150). Put plainly: GLUCOCORTICO Eurofins-Panlabs selectivity data (BI). To be noted: Compound concentration 10.0 uM.
For series [10], the target named is Histamine H2 receptor (Homo sapiens) (UniProt P25021). Briefly: H2/H Eurofins-Panlabs selectivity data (BI). As to conditions: Compound concentration 10.0 uM.
The target of series [11] is Mu-type opioid receptor (Homo sapiens) (UniProt P35372). Briefly: MU/HU Eurofins-Panlabs selectivity data (BI). To be noted: Compound concentration 10.0 uM.
The target of series [12] is Androgen receptor (Rattus norvegicus) (UniProt P15207). Put plainly: TESTOST/RA Eurofins-Panlabs selectivity data (BI). As to conditions: Compound concentration 10.0 uM.
Series [13] deals with Thyroid hormone receptor alpha (Rattus norvegicus) (UniProt P63059). Put plainly: THYROID HORM Eurofins-Panlabs selectivity data (BI). As to conditions: Compound concentration 10.0 uM.
For series [14], the target named is Kappa-type opioid receptor (Homo sapiens) (UniProt P41145). As to conditions: Compound concentration 10.0 uM.
Series [15] deals with Histamine H3 receptor (Homo sapiens) (UniProt Q9Y5N1). As to conditions: Compound concentration 10.0 uM.
Series [16] has as its target Beta-1 adrenergic receptor (Homo sapiens) (UniProt P08588). As to conditions: Compound concentration 10.0 uM.
In series [17] the target is Melatonin receptor type 1A (Homo sapiens) (UniProt P48039). As to conditions: Compound concentration 10.0 uM.
A short description of series [18]: Human platelet swelling inhibition (hPSA) assay.

Beta-1 adrenergic receptor (Homo sapiens), sequence (P08588 whole entry, looked up): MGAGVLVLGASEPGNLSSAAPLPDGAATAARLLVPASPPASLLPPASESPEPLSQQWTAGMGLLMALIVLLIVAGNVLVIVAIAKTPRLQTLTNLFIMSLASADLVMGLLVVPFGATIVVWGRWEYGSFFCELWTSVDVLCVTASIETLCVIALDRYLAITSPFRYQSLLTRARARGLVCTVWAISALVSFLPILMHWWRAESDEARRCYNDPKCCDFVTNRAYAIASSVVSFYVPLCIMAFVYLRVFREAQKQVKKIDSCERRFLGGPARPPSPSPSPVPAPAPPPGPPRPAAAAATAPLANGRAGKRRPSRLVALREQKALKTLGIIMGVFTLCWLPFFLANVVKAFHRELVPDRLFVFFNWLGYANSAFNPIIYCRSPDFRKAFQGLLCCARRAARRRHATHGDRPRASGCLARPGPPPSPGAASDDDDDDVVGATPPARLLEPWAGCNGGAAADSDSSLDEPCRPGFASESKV
Kappa-type opioid receptor (Homo sapiens), sequence (P41145 whole entry): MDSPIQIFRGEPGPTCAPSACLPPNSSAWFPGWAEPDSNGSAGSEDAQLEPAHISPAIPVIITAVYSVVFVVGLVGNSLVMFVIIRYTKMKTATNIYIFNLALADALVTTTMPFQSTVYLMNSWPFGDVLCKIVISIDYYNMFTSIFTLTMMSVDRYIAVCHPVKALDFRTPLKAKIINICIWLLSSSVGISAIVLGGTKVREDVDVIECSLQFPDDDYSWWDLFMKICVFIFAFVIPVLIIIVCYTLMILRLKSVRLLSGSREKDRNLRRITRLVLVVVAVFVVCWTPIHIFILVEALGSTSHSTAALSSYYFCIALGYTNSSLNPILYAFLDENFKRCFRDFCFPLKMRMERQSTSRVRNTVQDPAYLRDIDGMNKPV
Histamine H2 receptor (Homo sapiens), sequence (P25021 whole entry): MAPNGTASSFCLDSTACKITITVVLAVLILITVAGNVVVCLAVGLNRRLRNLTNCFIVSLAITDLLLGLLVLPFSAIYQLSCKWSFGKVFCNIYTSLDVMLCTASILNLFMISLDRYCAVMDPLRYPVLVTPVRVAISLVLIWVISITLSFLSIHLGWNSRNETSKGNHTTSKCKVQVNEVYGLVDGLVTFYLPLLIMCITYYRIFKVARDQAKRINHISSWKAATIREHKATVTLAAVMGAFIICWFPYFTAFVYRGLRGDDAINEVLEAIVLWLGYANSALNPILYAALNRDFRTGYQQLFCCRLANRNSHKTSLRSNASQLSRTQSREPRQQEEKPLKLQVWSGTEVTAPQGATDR
D(2) dopamine receptor (Homo sapiens), sequence (P14416 whole entry): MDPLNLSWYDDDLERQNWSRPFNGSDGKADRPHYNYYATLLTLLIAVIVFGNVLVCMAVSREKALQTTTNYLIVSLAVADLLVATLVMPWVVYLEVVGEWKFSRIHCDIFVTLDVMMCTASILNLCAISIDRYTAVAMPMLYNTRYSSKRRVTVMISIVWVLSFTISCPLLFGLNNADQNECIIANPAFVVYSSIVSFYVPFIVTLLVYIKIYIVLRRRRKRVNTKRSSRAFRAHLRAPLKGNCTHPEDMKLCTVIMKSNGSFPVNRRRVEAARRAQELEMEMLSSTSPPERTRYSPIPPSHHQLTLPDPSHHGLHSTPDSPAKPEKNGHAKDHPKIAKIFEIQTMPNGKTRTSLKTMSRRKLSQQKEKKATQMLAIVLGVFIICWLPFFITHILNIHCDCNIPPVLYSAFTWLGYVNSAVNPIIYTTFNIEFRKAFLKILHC
Melatonin receptor type 1A (Homo sapiens), sequence (P48039 whole entry): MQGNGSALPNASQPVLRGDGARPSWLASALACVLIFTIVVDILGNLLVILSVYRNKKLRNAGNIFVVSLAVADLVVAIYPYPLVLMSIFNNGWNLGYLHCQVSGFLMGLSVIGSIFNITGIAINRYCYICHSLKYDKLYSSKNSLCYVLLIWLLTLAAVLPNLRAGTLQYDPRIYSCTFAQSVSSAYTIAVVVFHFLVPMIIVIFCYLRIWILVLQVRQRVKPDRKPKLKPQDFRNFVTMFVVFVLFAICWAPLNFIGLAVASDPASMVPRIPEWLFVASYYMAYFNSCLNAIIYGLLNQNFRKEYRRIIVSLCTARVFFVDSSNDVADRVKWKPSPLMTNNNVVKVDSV
Gamma-aminobutyric acid receptor subunit alpha-1 (Rattus norvegicus), sequence (P62813 whole entry): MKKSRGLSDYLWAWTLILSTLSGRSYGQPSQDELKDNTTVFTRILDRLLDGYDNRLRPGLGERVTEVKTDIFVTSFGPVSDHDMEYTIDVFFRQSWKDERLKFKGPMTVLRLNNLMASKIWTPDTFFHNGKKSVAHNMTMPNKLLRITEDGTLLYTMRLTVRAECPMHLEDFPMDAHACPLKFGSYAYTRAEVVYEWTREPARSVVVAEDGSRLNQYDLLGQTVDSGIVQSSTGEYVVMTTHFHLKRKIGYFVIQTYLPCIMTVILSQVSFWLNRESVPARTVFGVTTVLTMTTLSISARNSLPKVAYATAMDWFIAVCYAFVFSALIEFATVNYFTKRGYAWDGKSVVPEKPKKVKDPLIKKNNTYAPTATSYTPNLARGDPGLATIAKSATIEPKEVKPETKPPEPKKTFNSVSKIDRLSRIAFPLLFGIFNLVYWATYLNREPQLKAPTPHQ
Glucocorticoid receptor (Homo sapiens), sequence (P04150 whole entry): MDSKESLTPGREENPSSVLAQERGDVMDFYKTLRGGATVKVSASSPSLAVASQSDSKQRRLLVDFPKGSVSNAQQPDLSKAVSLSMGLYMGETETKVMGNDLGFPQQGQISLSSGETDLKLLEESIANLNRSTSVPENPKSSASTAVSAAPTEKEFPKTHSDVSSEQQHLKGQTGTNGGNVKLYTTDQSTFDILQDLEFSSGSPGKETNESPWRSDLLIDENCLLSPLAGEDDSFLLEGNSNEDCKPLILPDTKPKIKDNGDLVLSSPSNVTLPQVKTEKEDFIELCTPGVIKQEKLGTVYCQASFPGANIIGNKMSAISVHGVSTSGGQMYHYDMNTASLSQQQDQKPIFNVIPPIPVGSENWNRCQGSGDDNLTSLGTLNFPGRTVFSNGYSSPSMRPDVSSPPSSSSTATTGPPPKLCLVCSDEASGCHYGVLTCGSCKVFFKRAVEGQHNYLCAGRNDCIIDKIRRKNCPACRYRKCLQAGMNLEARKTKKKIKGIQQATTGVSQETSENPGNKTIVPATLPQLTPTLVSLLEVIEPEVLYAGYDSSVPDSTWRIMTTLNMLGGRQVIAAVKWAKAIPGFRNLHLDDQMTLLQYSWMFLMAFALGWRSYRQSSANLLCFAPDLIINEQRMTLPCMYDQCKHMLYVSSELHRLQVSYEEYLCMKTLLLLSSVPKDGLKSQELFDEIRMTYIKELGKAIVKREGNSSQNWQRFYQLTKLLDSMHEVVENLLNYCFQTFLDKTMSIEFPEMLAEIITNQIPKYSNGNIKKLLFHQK
Mu-type opioid receptor (Homo sapiens), sequence (P35372 whole entry): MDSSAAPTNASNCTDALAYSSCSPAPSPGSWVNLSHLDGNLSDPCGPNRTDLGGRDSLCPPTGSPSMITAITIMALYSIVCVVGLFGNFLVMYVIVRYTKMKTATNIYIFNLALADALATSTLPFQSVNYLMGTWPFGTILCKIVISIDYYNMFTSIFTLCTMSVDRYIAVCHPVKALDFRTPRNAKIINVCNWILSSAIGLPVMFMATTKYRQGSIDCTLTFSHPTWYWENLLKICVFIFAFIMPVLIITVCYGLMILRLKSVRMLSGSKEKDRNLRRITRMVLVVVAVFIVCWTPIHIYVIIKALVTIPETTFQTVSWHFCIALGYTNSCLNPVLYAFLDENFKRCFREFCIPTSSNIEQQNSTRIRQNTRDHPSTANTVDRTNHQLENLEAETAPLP
Androgen receptor (Rattus norvegicus), sequence (P15207 whole entry S389L): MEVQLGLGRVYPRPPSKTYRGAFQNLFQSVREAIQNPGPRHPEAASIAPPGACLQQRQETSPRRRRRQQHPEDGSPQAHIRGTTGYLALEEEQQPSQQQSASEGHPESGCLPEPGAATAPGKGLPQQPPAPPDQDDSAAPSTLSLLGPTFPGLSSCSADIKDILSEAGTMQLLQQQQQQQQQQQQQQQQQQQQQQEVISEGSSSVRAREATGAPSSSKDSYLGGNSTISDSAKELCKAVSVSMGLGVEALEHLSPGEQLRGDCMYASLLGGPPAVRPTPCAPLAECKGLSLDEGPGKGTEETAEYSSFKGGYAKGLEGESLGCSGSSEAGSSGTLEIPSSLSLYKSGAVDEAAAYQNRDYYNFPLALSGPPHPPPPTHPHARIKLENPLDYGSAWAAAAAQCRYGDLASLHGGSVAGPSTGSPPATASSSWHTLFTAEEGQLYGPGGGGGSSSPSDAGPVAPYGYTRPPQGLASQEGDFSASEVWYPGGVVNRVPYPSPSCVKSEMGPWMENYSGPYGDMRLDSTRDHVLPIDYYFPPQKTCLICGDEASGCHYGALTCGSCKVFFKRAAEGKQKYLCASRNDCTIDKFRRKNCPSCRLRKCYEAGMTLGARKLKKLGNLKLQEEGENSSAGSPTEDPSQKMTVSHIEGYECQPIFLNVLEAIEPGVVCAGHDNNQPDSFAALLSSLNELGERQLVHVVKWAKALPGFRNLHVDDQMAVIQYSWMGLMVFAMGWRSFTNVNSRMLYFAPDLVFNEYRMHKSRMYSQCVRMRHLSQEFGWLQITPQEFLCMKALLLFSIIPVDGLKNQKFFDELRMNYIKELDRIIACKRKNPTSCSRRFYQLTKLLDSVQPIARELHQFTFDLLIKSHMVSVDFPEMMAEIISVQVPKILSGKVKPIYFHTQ
Delta-type opioid receptor (Homo sapiens), sequence (P41143 whole entry): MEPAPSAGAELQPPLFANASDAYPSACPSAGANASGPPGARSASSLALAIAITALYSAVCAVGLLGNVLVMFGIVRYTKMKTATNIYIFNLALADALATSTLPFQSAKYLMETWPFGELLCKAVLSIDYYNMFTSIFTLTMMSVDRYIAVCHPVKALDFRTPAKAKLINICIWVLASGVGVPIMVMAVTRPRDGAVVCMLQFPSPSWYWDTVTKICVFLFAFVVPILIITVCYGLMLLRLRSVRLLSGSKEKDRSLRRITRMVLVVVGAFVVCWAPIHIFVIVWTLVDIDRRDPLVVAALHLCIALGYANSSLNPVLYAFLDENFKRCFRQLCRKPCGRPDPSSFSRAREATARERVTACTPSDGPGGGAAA

Turning to `CC(=O)N1CCC(c2ccc(C(=O)NC3=NCCN3)cc2C(F)(F)F)CC1` [BI 0054], the residual activity in series [1] is 98%.
In the case of `CC(=O)N1CCC(c2ccc(C(=O)NC(=N)N)cc2C(F)(F)F)CC1` [BI 9627], the residual activity is 102% in [2]; 95% in series [5]; 110% in series [6]; 113% in [7]; 89% in [8]; 98% in series [9]. In addition, the residual activity is 103% in [10]; 91% in series [11]; 95% in series [12]; 93% in series [13]; 96% in [17]. Moreover, the activity at 10 µM is 77% (not active) in series [3] and 68% (not active) in series [4]. Besides, the values for the inhibition in series [14], in [15] and in series [16] were 9.26%, -6.54% and -9.29%, respectively. Further, the IC50 – broadly, the midpoint of a concentration-inhibition curve – in series [18] was 31 nM (active).
